Assay results from publication PMC8836295, “Essential role of pyrophosphate homeostasis mediated by the pyrophosphate-dependent phosphofructokinase in Toxoplasma gondii” (PLoS Pathogens, 2022).

Biological target: T1, PFK2-N (Toxoplasma gondii, UniProt A0A125YKV6)
T1 construct: gene PFKII; N-terminal phosphofructokinase domain, residues 1-595; recombinant, E. coli Transetta (DE3), plasmid pESUMO-PFK2N (His-SUMO vector), Ni2+ column
T1 sequence (A0A125YKV6 1-595): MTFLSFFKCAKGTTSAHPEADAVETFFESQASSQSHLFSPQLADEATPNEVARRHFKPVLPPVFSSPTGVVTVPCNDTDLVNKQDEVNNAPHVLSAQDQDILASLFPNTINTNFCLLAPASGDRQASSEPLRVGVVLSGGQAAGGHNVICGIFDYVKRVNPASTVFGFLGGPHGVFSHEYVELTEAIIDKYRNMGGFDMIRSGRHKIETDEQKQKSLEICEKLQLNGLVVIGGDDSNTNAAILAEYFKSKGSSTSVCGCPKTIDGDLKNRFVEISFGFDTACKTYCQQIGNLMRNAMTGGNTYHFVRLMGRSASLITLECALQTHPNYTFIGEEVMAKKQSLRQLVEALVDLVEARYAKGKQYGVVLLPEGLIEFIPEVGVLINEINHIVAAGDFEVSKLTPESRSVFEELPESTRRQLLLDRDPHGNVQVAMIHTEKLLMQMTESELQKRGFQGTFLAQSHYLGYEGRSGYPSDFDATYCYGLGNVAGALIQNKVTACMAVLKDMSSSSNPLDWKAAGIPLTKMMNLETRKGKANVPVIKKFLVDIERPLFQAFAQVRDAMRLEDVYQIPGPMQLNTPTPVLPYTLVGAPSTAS
Assay: NADH-coupled OD340 assay (PFP activity kit)
Type: biochemical
Details: co-substrate F6P 4 mM

Structure (SMILES): O=P(O)(O)OP(=O)(O)O [PPi]
- NADH-coupled OD340 assay (PFP activity kit): individually purified and assayed for the PPi dependent PFK activity
